Tested on: annual ryegrass
Experiment: Pre-emergence herbicidal activity by the Petri dish seed germination method
Format: in vivo
Conditions: 25° C., 5 days
Method: Step 2: accurately weigh 1 mmol of the 1,8-bis(Schiff base)-p-menthane derivative and dissolve it in 0.25 mL DMF, and then add a drop of Tween 80 into it; after the product is fully dissolved, the resulting solution is transferred to a 100 mL volumetric flask and is diluted with distilled water to the mark to obtain a solution having a concentration of 10 mmol/L as the mother liquor. Using the two-fold dilution method, a series of diluted sample solutions with different concentrations are prepared with the mother liquor (the concentrations of DMF and Tween 80 in the diluted solutions should be consistent with those in the mother liquor).
The annual ryegrass seeds are soaked with distilled water for 15 h. Place a piece of filter paper on the bottom of a Petri dish (φ9 cm), add 10 mL of the above sample solution having the corresponding concentration into it, respectively, and add the same amount of the mixture of water, DMF and Tween 80 into such a Petri dish as a blank control. Place 10 grains of seeds into each dish. The dishes are then placed in an incubator and cultured at 25° C. for 5 days. The experimental data are analyzed with DPS software, and the inhibition rate of the 1,8-bis(Schiff base)-p-menthane derivative on the root or stem growth of ryegrass seeds is calculated as follows:
[formula] Where: y is the inhibition rate on the root or stem growth, x2 is the root length or stem length of the control sample, and x1 is the root length or stem length of the sample.
1 mmol of the 1,8-bis(2-hydroxyphenylimine)-p-menthane was accurately weighed and dissolved in 0.25 mL DMF; a drop of Tween 80 was then added into it; after the product was fully dissolved, the resulting solution was transferred to a 100 mL volumetric flask and was diluted with distilled water to the mark to obtain a solution having a concentration of 10 mmol/L as the mother liquor. Using the two-fold dilution method, a series of diluted sample solutions with different concentrations (5 mmol/L, 2.5 mmol/L, 1.25 mmol/L, 0.625 mmol/L and 0.3125 mmol/L; the concentrations of DMF and Tween 80 in the diluted solutions should be consistent with those in the mother liquor) were prepared with the mother liquor.
The annual ryegrass seeds were soaked with distilled water for 15 h. Placed a piece of filter paper on the bottom of a Petri dish (φ 9 cm), added 10 mL of the above sample solution having the corresponding concentration into it, respectively, and added the same amount of the mixture of water, DMF and Tween 80 into such a Petri dish as a blank control. 10 grains of seeds were placed into each of the dishes. The dishes were then placed in an incubator and cultured at 25° C. for 5 days.

Compound | inhibition rate on the root growth of ryegrass seeds (0.3125 mmol/L solution) [%] | inhibition rate on the stem growth of ryegrass seeds (0.3125 mmol/L solution) [%] | inhibition rate on the root growth of ryegrass seeds (0.625 mmol/L solution) [%] | inhibition rate on the stem growth of ryegrass seeds (0.625 mmol/L solution) [%] | inhibition rate on the root growth of ryegrass seeds (1.25 mmol/L solution) [%] | inhibition rate on the stem growth of ryegrass seeds (1.25 mmol/L solution) [%] | inhibition rate on the root growth of ryegrass seeds (2.5 mmol/L solution) [%] | inhibition rate on the stem growth of ryegrass seeds (2.5 mmol/L solution) [%] | inhibition rate on the root growth of ryegrass seeds (5 mmol/L solution) [%] | inhibition rate on the stem growth of ryegrass seeds (5 mmol/L solution) [%] | inhibition rate on the root growth of ryegrass seeds (10 mmol/L solution) [%] | inhibition rate on the stem growth of ryegrass seeds (10 mmol/L solution) [%]
1,8-bis(p-trifluoromethylphenylimine)-p-menthane | 35.4 | 1.1 | 45.5 | 2.4 | 65.8 | 26.0 | 87.5 | 53.7 | 81.7 | 34.8 | 93.8 | 87.9
1,8-bis(2-hydroxyphenylimine)-p-menthane | 14.3 | 6.9 | 41.4 | 38.0 | 62.2 | 61.7 | 83.3 | 79.5 | 100.0 | 100.0 | 100.0 | 100.0
1,8-bis(4-bromophenylimine)-p-menthane | 71.0 | 64.8 | 88.0 | 79.5 | 100.0 | 100.0 | 100.0 | 100.0 | 100.0 | 100.0 | 100.0 | 100.0
CC1(N=Cc2c(Cl)cccc2Cl)CCC(C(C)(C)N=Cc2c(Cl)cccc2Cl)CC1 (stereo not drawn) [1,8-bis(2,6-dichlorophenylimine)-p-menthane] | 100.0 | 100.0 | 100.0 | 100.0 | 100.0 | 100.0 | 100.0 | 100.0 | 100.0 | 100.0 | 100.0 | 100.0
1,8-bis(4-methoxyphenylimine)-p-menthane | 12.5 | 30.6 | 15.5 | 32.2 | 54.3 | 48.2 | 88.3 | 73.9 | 100.0 | 100.0 | 100.0 | 100.0
1,8-bis(4-fluorophenylimine)-p-menthane | 14.0 | 4.5 | 35.0 | 21.6 | 58.0 | 49.9 | 78.0 | 53.8 | 85.5 | 82.5 | 94.9 | 94.9
1,8-bis(4-chlorophenylimine)-p-menthane | 94.1 | 75.2 | 98.0 | 90.3 | 99.3 | 91.4 | 100.0 | 98.2 | 100.0 | 100.0 | 100.0 | 100.0
1,8-bis(4-methylphenylimine)-p-menthane | 20.3 | 11.1 | 26.3 | 25.9 | 34.2 | 26.8 | 67.0 | 46.2 | 92.8 | 90.4 | 100.0 | 100.0
1,8-bis(2-trifluoromethylphenylimine)-p-menthane | 79.2 | 56.3 | 86.2 | 56.3 | 99.7 | 88.2 | 100.0 | 100.0 | 100.0 | 100.0 | 100.0 | 100.0
1,8-bis(p-dimethylaminophenylimine)-p-menthane | 100.0 | 96.8 | 100.0 | 100.0 | 100.0 | 100.0 | 100.0 | 100.0 | 100.0 | 100.0 | 100.0 | 100.0
1,8-bis(p-methylthiophenylimine)-p-menthane | 37.7 | 20.8 | 46.4 | 28.7 | 35.4 | 27.1 | 54.8 | 28.0 | 50.3 | 21.9 | 67.8 | 36.7

— patent publication US10674723B2, “1,8-bis(Schiff base)-p-menthane derivatives as well as preparation method and applications thereof” (INSTITUTE OF CHEMICAL INDUSTRY OF FOREST PRODUCTS, CAF, priority 2016, dated 2020)
